Experiments:
DU-145 cells = assay: Cell cycle analysis by flow cytometry in DU-145 cells; assay type: cell-based, human; conditions: DU-145, 10 μM
Protocol: DU-145 cells were treated with 10 μM of (2) for 6, 24, 48, 72, or 96 h. At the end of each time period, cells were hypotonically lysed in DNA staining solution (0.5 mg/ml propidium iodide, 0.1% sodium citrate, and 0.05% Triton X-100). The stained cells were analyzed by flow cytometry (FACS) using software provided by Phoenix Flow System.

[1] = molecular target: T1, Human recombinant estrogen receptor-α (ER-α) (Homo sapiens, UniProt P03372); assay: Estrogen receptor binding assay, 3H-17β-estradiol displacement, ER-α; conditions: 4° C. overnight
T1 construct: purchased PanVera Corporation (Madison, Wis.)
T1 sequence (P03372 1-595): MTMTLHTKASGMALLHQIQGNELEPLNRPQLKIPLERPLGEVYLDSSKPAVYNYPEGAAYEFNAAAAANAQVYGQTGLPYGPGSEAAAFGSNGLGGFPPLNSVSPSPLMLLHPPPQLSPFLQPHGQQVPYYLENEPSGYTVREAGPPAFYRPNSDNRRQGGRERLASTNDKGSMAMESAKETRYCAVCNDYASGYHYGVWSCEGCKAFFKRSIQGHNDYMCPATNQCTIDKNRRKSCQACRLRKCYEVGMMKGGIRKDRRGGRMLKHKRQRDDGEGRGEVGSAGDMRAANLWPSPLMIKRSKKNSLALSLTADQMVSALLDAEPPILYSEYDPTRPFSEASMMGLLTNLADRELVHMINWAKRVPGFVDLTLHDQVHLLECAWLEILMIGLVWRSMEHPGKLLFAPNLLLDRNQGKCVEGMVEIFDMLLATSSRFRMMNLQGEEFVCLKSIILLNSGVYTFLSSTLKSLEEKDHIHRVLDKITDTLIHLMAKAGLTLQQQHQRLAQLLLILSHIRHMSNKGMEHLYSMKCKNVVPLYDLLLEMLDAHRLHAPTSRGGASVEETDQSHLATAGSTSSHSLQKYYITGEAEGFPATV
Protocol: Human recombinant estrogen receptor-α (ER-α) and estrogen receptor-β (ER-β) were obtained from PanVera Corporation (Madison, Wis.) to conduct the binding assay. To measure the binding affinity of (2), various concentrations of (2) or 17β-estradiol were incubated with either ER-α or ER-β receptor in the presence of a fixed amount of ^3H-17β-estradiol at 4° C. overnight. At the end of the incubation, the free- and bound-3H-estradiol were separated following the instructions provided by the manufacturer using hydroxylapatite.

[2] = tested on: HIF-1α protein in RAW 264.7 immortalized mouse macrophages; assay: HIF-1α protein expression by immunoblotting, RAW 264.7 macrophages; assay type: cell-based; conditions: RAW 264.7 macrophages (normal cell line)
Protocol: Hypoxia experiments were performed in either of two ways. To produce a very low ambient oxygen concentration (effectively anoxia), we used a protocol in which cells were incubated in a 5% CO2-air atmosphere at 37° C. overnight and then placed in aluminum gas-exchange chambers maintained at 37° C. (Laderoute K R et al. Mol Cell Biol 22: 2515-2523, (2002); Laderoute K R et al. Mol Cell Biol 24: 4128-4137, (2004)). The chambers containing the cells were then placed in a 37° C. circulating water bath and the original atmosphere was repeatedly exchanged with 5% CO2-95% N2 using a manifold equipped with a vacuum pump and a gas cylinder. Atmospheric oxygen partial pressure (pO2) values of less than or equal to 0.01% (relative to air at pO2 of about 21%) can be achieved inside the chambers using this system. […] Atmospheric oxygen levels in both the chambers and the glove box have been measured and calibrated using a polarographic oxygen electrode (Oxygen Sensors, Inc., Norristown, Pa.). […]
We used immunoblotting to evaluate the experiments. […] After spinning at 9,000×g for 5 min at 4° C., the protein concentrations of the supernatants were determined by using a bicinchoninic acid assay (Pierce Biotechnology). […] Primary antibody binding was detected and visualized by using the ECL Plus Western Blotting Detection System (Amersham Pharmacia Biotech) according to the supplier's instructions. […]

What does the source list for `C[C@@H]1Cc2cc(O)ccc2C2CCC3(C)/C(=C/COCCN(C)C)CCC3C21` (stereo partly drawn) [Compound (2), (E)-3-Hydroxy-7α-methyl-21-[(2-dimethylamino)ethoxy]-19-norpregna-1,3,5(10),17(20)-tetraene]?
more cells arrested in phase G1 compared with untreated control (DU-145 cells): about 30%; binding affinity (relative to non-radiolabeled estradiol, 50% displacement of 3H-estradiol) [1]: 3; HIF-1α protein expression [2]: did not influence

— patent publication US20120252773A1, “Method and composition for inhibiting cell proliferation and angiogenesis” (priority 2005, published 2012)
